“Also recorded” adds a separate entry of the source.
Experiments:
[1] = Infusion into human subjects with Class III NYHA congestive heart failure; format: in vivo, humans
Experimental: Human proANF's 1-30, 31-67, 79-98, and 99-126 (i.e., ANF) were infused into human subjects with Class III New York Heart Association congestive heart failure (CHF). An identical protocol to that used in example V where these peptides were infused into healthy human subjects was utilized. (See Attachment C and F for a detailed description of this protocol). The human subjects with congestive heart failure received an identical dose (0.1 μg/kg body wt/minute for 60 minutes) that the healthy human subjects received. […] This striking urine output secondary to proANF 31-67 was significant at P<0.0001 compared to the pre-infusion output of the congestive heart failure subjects (n=6).

[2] = tested on: renal medullary Na+-K+-ATPase; test: Inhibition of renal medullary Na+-K+-ATPase activity (FIG. 9); format: biochemical; settings: 10^-11 M, n=6, ANOVA
From the text: FIG. 9. Inhibition of renal medullary Na+-K+-ATPase activity by proANF 79-98 (kaliuretic peptide), proANF 1-30 (long acting natriuretic peptide), proANF 31-67 (vessel dilator), and angiotensin II at their […] concentrations.

[3] = tested on: prostaglandin E2 (PGE2) synthesis; test: Prostaglandin E2 synthesis (FIG. 8); format: biochemical; settings: n=6, ANOVA and Duncan's MRT
[4] = tested on: particulate guanylate cyclase; test: Particulate guanylate cyclase activity in the kidney; format: biochemical; settings: 1 μM; whole kidney homogenates, renal cortical and medullary membranes, isolated distal nephrons
Experimental: Testing is also carried out to determine biologic effects of these peptides by measuring their effects on particulate guanylate activity in the kidney.

[5] = Rat clearance model (diuresis and salt excretion); format: in vivo, Munich-Wistar rats; settings: for FENa, fractional excretion of sodium / UNa, urinary sodium / UNaV, urinary sodium excretion rate / V, urine flow rate: means ± SE
Experimental: The same three peptides and ANF from Example I are tested using the rat clearance model. Six control rats and six experimental Munich-Wistar rats, each weighing 150-200 grams, are used for each peptide, with catheters being placed in both jugular veins and in the femoral artery. The ureters are cannulated for simultaneous urine collections with femoral artery blood collections.
After inserting the catheters, a stabilization of one hour is allowed. A 10 μg/kg bolus of each of the respective human sequences of the peptides is given via the jugular vein to six experimental rats followed by a sustaining infusion of 0.1 μg/kg/min for 60 minutes. Blood and urine samples are collected at 20 minute intervals during this 60 minute infusion. In both the control and experimental animals, hematocrits and plasma sodium values remained at the same levels pre- and post-infusion while blood pressure decreased with each of these peptides (see Attachment B).

[6] = Infusion into healthy human subjects; format: in vivo; settings: healthy humans
Experimental: Infusion of these peptides into healthy human subjects was performed as follows: Human pro-ANF 1-30, pro-ANF 31-67, and pro-ANF 79-98, and hANF (i.e., pro-ANF 99-126, were synthesized by Peninsula Laboratories (Belmont, Calif.). High pressure liquid chromatography (HPLC) analysis was performed on a sample of each of the four peptides to ensure purity. The peptides were dissolved in a sterile 0.9% saline solution to a concentration of 100 μg/ml and dispensed in 2 and 5 ml aliquots into sealed sterile vials. At the time of dispensing, randomly selected vials were tested for pyrogens and sterility. Prior to labeling the vials, the actual peptide content of the dispensed solution were determined by direct radioimmunoassay to account for any possible absorption of the respective peptides to the walls of the vials. All vials were then stored at −80° C. until thawed for individual study.
Normal healthy subjects were chosen on the basis of age (between 20 and 50 years), physical examination and biochemical screenings. The subjects consumed their normal diets prior to testing. The subjects fasted overnight and were tested in the morning in the seated position. Intravenous catheters were placed bilaterally for the administration of pro-hANF 1-30, pro-hANF 31-67, pro-hANF 79-98 and hANF (pro-hANF 99-126) and for blood sampling. After completion of a 45-minute equilibration period, there were three […] phases of the study: baseline, experimental infusion (60 minutes) and recovery (3 hours). The baseline phase consisted of two 30 minute urine collection periods, the experimental phase consisted of three 20 minute urine and plasma collection periods, and the recovery phase consisted of two 30 minute urine and plasma collection periods each hour for three hours post-infusion. Urine output was replaced on a milliliter per milliliter basis throughout the study by administering oral water or orange juice. Urine samples were obtained by voiding at the designated collection periods.
The 36 subjects were divided into 6 groups. One group (i.e., the control group) received a placebo infusion of 0.9% sodium chloride during the experimental infusion phase. […] The four remaining groups of six subjects each received human pro-hANF 1-30, pro-hANF 31-67, pro-hANF 79-98 and HANF. The four groups received the peptides by continuous infusion at the rate of 0.1 μg/kg per minute. The volume administered per hour during the experimental infusion phase was 10 ml for all four peptides and the placebo. All infusions were given by a constant-rate infusion pump, with the final concentrations of prohANFs adjusted for the subjects' body weight. The subjects heart rate and cuff blood pressure were taken at 5 minute intervals throughout the study. The excreted urine was analyzed for sodium concentration.

porcine aortas = test: Vasodilation of porcine aortic strips preconstricted with 0.3 micromolar phenylephrine
Experimental: 30 Kg pigs are sacrificed, and aortic strips are harvested. The strips are attached to F-60 transducer (Narco-BioSystems, Houston, Tex.) and attached to a physiography (Narco-BioSystems) while being submerged in a muscle tissue bath comprising a Krebs Ringer solution at 37° C., with 95% O2-5% CO2, bubbled through the bath. Percentage vasodilation is measured versus time after preconstriction with 0.3 micromolar phenylephrine. […] (Vesely et al., Biochem. Biophys. Res. Commun. 148:1540-1548, 1987).

[7] = A, control period (before peptide)
[8] = B, first 60-minute experiment period, 10 μg/kg bolus then 0.1 μg/kg/min
[9] = C, second 60-minute experimental period

Question: Which “FENa 20 minutes after infusion began” value ([1]; CHF) does the source give for “H-EVVPPQVLSEPNEEAGAALSPLPEVPPWTGEVSPAQR-OH [proANF 31-67]” here?
Answer: Its value is “doubled”.

Question: What about the “FENa at the end of the infusion vs baseline” value ([1]; CHF) of the same substance?
Answer: Its value is 4.5 fold.

Question: And the “decrease of central venous pressure” value ([1]; CHF)?
Answer: Its value is 27%.

Question: What about the “decrease of pulmonary capillary wedge pressure” value ([1]; CHF) of the same substance?
Answer: Its value is 33%.

Question: And the heart rate ([1]; CHF)?
Answer: The heart rate was “did not change significantly”.

Question: And the “increase of cardiac index” value ([1]; CHF)?
Answer: The value was 35%.

Question: And the “increase of cardiac output” value ([1]; CHF)?
Answer: The value was 34%.

Question: And the “increase of stroke volume index” value ([1]; CHF)?
Answer: The value was 24%.

Question: And the “mean pulmonary artery pressure” value ([1]; CHF)?
Answer: Its value is “did not change significantly”.

Question: And the “sodium excretion within 20 minutes” value ([1]; CHF)?
Answer: The value was “doubling”.

Question: What about the “enhancement of sodium excretion” value ([1]; CHF subjects, 100 ng/kg body weight/min for 60 minutes) of the same substance?
Answer: The value was “three-to-eight fold”.

Question: And the “urine output in 20 minutes” value ([1]; CHF, 0.1 μg/kg body wt/minute for 60 minutes)?
Answer: The value was “doubled”.

Question: And the “urine output at the end of the 60 minute infusion” value ([1]; CHF, 0.1 μg/kg body wt/minute, n=6)?
Answer: Its value is 4.8 fold.

Question: What about the “fractional excretion of sodium (in words)” value ([1]; CHF, 100 ng/kg body weight per minute for 60 minutes) of the same substance?
Answer: Its value is “significantly (P<0.05) increased”.

Question: What about the “maximum increase of fractional excretion of sodium (FENa)” value ([1]; CHF, P<0.001) of the same substance?
Answer: Its value is 6 fold.

Question: And the “sodium excretion 3 hours after infusion was stopped vs baseline” value ([1]; CHF, P<0.01)?
Answer: Its value is 3 fold.

Question: And the “decrease of pulmonary vascular resistance” value ([1]; CHF, during the infusion)?
Answer: Its value is 25%.

Question: What about the “decrease of systemic vascular resistance” value ([1]; CHF, during the infusion) of the same substance?
Answer: Its value is 24%.

Question: What about the “urine output 3 hours after stopping the infusion vs pre-infusion values” ([1]; CHF, n=6) of the same substance?
Answer: The value was 4.3 fold.

Question: And the “urine output 3 hours after stopping the infusion” value ([1]; CHF, n=6, baseline 1.56±0.35 mL/min)?
Answer: Its value is 6.7 ± 0.65 mL/min.

Question: And the “cardiac index after proANF 31-67” value ([1]; CHF, from 2.66±0.01)?
Answer: Its value is 3.58±0.01 L·min^−1·m^−2.

Question: And the “cardiac output after proANF 31-67” value ([1]; CHF, from 5.35±0.9 L/min)?
Answer: The value was 7.9 ± 1.2 L/min.

Question: What about the “effects in persons with CHF compared to healthy individuals” value ([1]; diuretic and natriuretic effects) of the same substance?
Answer: Its value is “not blunted (i.e., decreased) compared to healthy individuals”.

Question: And the adverse effects ([1]; human, in vivo)?
Answer: Its adverse effects is “no adverse effects”.

Question: And the hypotension ([1]; human, in vivo)?
Answer: Its hypotension is “None became hypotensive”.

Question: What about the “increase in urinary volume and flow” value ([1]; one CHF patient, for six hours after infusion was stopped) of the same substance?
Answer: Its value is 2 fold.

Question: What about the “inhibition of renal medullary Na+-K+-ATPase activity” value [2] of the same substance?
Answer: Its value is “significant at P<0.01”.

Question: What about the “prostaglandin E2 (PGE2) synthesis” value [3] of the same substance?
Answer: The value was “increase prostaglandin E2 (PGE2) synthesis”.

Question: What about the “particulate guanylate cyclase activity” value [4] of the same substance?
Answer: The value was “enhance”.

Question: What about the “FENa, fractional excretion of sodium” value [5, 7] of the same substance?
Answer: The value was 0.057 ± 0.012%.

Question: What about the “UNa, urinary sodium” value [5, 7] of the same substance?
Answer: Its value is 21.02 ± 4.41 meq/1.

Question: And the “UNaV, urinary sodium excretion rate” value [5, 7]?
Answer: Its value is 144.08 ± 56.75 μeq · min^−1 · g kidney wt^−1.

Question: What about the “V, urine flow rate” value [5, 7] of the same substance?
Answer: Its value is 2.63 ± 0.24 μl · min^−1 · g kidney wt^−1.

Question: And the “V, urine flow rate” value ([5]; B, first 60-minute experiment period, 10 μg/kg bolus then 0.1 μg/kg/min via jugular vein)?
Answer: Its value is 9.36 ± 3.14 μl · min^−1 · g kidney wt^−1.

Question: And the “FENa, fractional excretion of sodium” value [5, 8]?
Answer: Its value is 0.457 ± 0.156%.

Question: What about the “UNa, urinary sodium” value [5, 8] of the same substance?
Answer: Its value is 111.73 ± 21.37 meq/1.

Question: And the “UNaV, urinary sodium excretion rate” value [5, 8]?
Answer: Its value is 1,057 ± 371.69 μeq · min^−1 · g kidney wt^−1.

Question: What about the “V, urine flow rate” value ([5]; C, second 60-minute experimental period, 10 μg/kg bolus then 0.1 μg/kg/min) of the same substance?
Answer: The value was 8.84 ± 1.86 μl · min^−1 · g kidney wt^−1.

Question: And the “FENa, fractional excretion of sodium” value [5, 9]?
Answer: The value was 0.444 ± 0.155%.

Question: What about the “UNa, urinary sodium” value [5, 9] of the same substance?
Answer: Its value is 129.33 ± 24.73 meq/1.

Question: What about the “UNaV, urinary sodium excretion rate” value [5, 9] of the same substance?
Answer: The value was 1,077.63 ± 306.10 μeq · min^−1 · g kidney wt^−1.

Question: And the potassium excretion ([5]; rat clearance model)?
Answer: Its potassium excretion is “does not cause increased potassium excretion”.

Question: And the “duration of sodium excreting effects compared to ANF” value [6]?
Answer: The value was “significantly (P<0.001) prolonged compared to ANF; also recorded: last significantly (P<0.001) longer than ANF's effects”.

Question: What about the “increase in urine volume (in words)” value ([6]; 100 ng/kg body wt per minute for 1 hour i.v., n=6, ANOVA) of the same substance?
Answer: The value was “significant”.

Question: What about the “sodium excretion (in words)” value ([6]; 100 ng/kg body wt per minute for 60 minutes, vs baseline) of the same substance?
Answer: The value was “significantly (P<0.05) increased”.

Question: What about the “systolic and diastolic blood pressures” value ([6]; 100 ng/kg body wt per minute i.v. for 60 min, n=6) of the same substance?
Answer: Its value is “significant; also recorded: lowers blood pressure the most”.

Question: What about the “increase in cyclic GMP levels over baseline levels associated with vasodilation” value (porcine aortas) of the same substance?
Answer: Its value is “four-to-five fold”.
